From patent publication US10689363B2 (Merck Patent GmbH, priority 2017, dated 2020)
Like-named read-outs stand apart in the source and are kept apart here.

Key:
[1] = Mini-dissolution in FaSSIF / FeSSIF medium at 37° C.; format: physicochemical; conditions: for Dissolution levels in FaSSIF pH 6.5: FaSSIF pH 6.5, 37° C.; for Dissolution levels in FeSSIF pH 5.0: FeSSIF pH 5.0, 37° C.
Description: All dispersions were agitated at 37° C. for up to 2 hours. At defined time intervals (30 min. 60 min, 120 min), sample aliquots of homogeneous dispersions were withdrawn by a syringe, and filtrated via syringe filter adapters (PTFE, 0.45 μm).

[2] = Water Vapour Sorption isotherm (25° C., DVS-Intrinsic), hygroscopicity acc. to Ph. Eur. 5.11.; format: physicochemical; conditions: for water uptake levels: relative humidity range 0-80% rh, 25° C.
Description: (§1) (based on multiple measurements on different samples of form A2). […] DSC scan of form A2 was acquired on a Mettler-Toledo DSC 821 with a heating rate of 50 K/min, using nitrogen purge gas at 50 mL/min. TGA scan of form A2 was acquired on a Mettler-Toledo TGA 851 with a heating rate of 5 K/min, using nitrogen purge gas at 50 mL/min. […] Eur. Criteria (section 5.11.). Water Vapour Sorption isotherm was acquired on a DVS-Intrinsic system from SMS.
(based on multiple measurements on different samples of form NF5). […] Eur. Criteria (section 5.11.). […] Water Vapour Sorption isotherm was acquired on a DVS-Intrinsic system from SMS.
(based on multiple measurements on one sample of form NF6). […] Eur. Criteria (section 5.11.). […] Water Vapour Sorption isotherm was acquired on a DVS-Intrinsic system from SMS.
Eur. Criteria (section 5.11.). […] Water Vapour Sorption isotherm was acquired on a DVS-Intrinsic system from SMS.
as §1, with “Other physical properties of” for “(based on multiple measurements on different samples of”, “form Fumarate-NF1 include the following: ^1H-NMR spectroscopic data reveal a API:Fumarate molar ratio of 1:1.” for “form A2).”, “form Fumarate-NF1” for “form A2”, “of 5” for “of 50”, “5.11.). […]” for “5.11.).”
Other physical properties of form Maleate-NF1 include the following: ^1H-NMR spectroscopic data reveal a API:Maleate molar ratio of 1:1. […] DSC scan of form Maleate-NF1 was acquired on a Mettler-Toledo DSC 821 with a heating rate of 5 K/min, using nitrogen purge gas at 50 mL/min. TGA scan of form Maleate-NF1 was acquired on a Mettler-Toledo TGA 851 with a heating rate of 5 K/min, using nitrogen purge gas at 50 mL/min. […] Form Maleate-NF1 can be classified as non-hygroscopic according to Ph. Eur. Criteria (section 5.11.). […] Water Vapour Sorption isotherm was acquired on a DVS-Intrinsic system from SMS.
Other physical properties of form Citrate-NF1 include the following: ^1H-NMR spectroscopic data reveal a API:Citrate molar ratio of 1:1. […] DSC scan of form Citrate-NF1 was acquired on a Mettler-Toledo DSC 821 with a heating rate of 5 K/min, using nitrogen purge gas at 50 mL/min. TGA scan of form Citrate-NF1 was acquired on a Mettler-Toledo TGA 851 with a heating rate of 5 K/min, using nitrogen purge gas at 50 mL/min. […] Eur. Criteria (section 5.11.). […] Water Vapour Sorption isotherm was acquired on a DVS-Intrinsic system from SMS.
(based on multiple measurements on different samples of form A1). […] DSC scan of form A1 was acquired on a Mettler-Toledo DSC 821 with a heating rate of 50 K/min, using nitrogen purge gas at 50 mL/min. TGA scan of form A1 was acquired on a Mettler-Toledo TGA 851 with a heating rate of 5 K/min, using nitrogen purge gas at 50 mL/min. […] Eur. Criteria (section 5.11.). […] Water Vapour Sorption isotherm was acquired on a DVS-Intrinsic system from SMS. […] Dissolution level of form A1 in Fasted-State Simulated Intestinal Fluid [FaSSIF, pH 6.5] at 37° C. was determined to be approx. 36 μg/mL (after 2 h), and dissolution level of form A1 in Fed-State Simulated Intestinal Fluid [FeSSIF, pH 5.0] at 37° C. was determined to be approx. 214 μg/mL (after 2 h), respectively (see example 11).
All forms were characterized according to standard methods which are found in e.g. Rolf Hilfiker, ‘Polymorphism in the Pharmaceutical Industry’. Wiley-VCH. Weinheim 2006 (Chapter 6: X-Ray Diffraction. Chapter 6: Vibrational Spectroscopy. Chapter 3: Thermal Analysis, Chapter 9: Water Vapour Sorption, and references therein); and H. G. Brittain, ‘Polymorphism in Pharmaceutical Solids. Vol. 95. Marcel Dekker Inc., New York 1999 (Chapter 6 and references therein).

[3] = 120 min (2 h), listed as form Oxalate-NF1
[4] = 120 min (2 h), listed as form Succinate-NF1

SMILES: C=CC(=O)N1CCC(CNc2ncnc(N)c2-c2ccc(Oc3ccccc3)cc2)CC1.O=C(O)CCC(=O)O [Oxalate-NF1, 1-(4-{[6-Amino-5-(4-phenoxy-phenyl)-pyrimidin-4-ylamino]-methyl}-piperidin-1-yl)-propenone]
- Dissolution levels in FaSSIF pH 6.5 ([1]; 30 min): 50 μg/mL
- Dissolution levels in FaSSIF pH 6.5 ([1]; 60 min): 54 μg/mL
- Dissolution levels in FaSSIF pH 6.5 ([1]; 120 min (2 h)): 58 μg/mL
- Dissolution levels in FaSSIF pH 6.5 [1, 3]: approx. 58 μg/mL
- dissolution levels (2 h), factor higher vs form A1 ([1]; FaSSIF): ~1.5
- Dissolution levels in FeSSIF pH 5.0 ([1]; 30 min): 600 μg/mL
- Dissolution levels in FeSSIF pH 5.0 ([1]; 60 min): 700 μg/mL
- Dissolution levels in FeSSIF pH 5.0 ([1]; 120 min (2 h)): 740 μg/mL
- Dissolution levels in FeSSIF pH 5.0 [1, 3]: approx. 740 μg/mL
- dissolution levels (2 h), factor higher vs form A1 ([1]; FeSSIF): ~3.5
- hygroscopicity classification according to Ph. Eur. Criteria (section 5.11.) [2]: Slightly hygroscopic
- hygroscopicity classification according to Ph. Eur. Criteria (section 5.11.) ([2]; listed as form Oxalate-NF1): slightly hygroscopic
- water uptake levels ([2]; listed as form Oxalate-NF1): < 1.0 wt %

SMILES: C=CC(=O)N1CCC(CNc2ncnc(N)c2-c2ccc(Oc3ccccc3)cc2)CC1.O=C(O)CCC(=O)O [Fumarate-NF1, 1-(4-{[6-Amino-5-(4-phenoxy-phenyl)-pyrimidin-4-ylamino]-methyl}-piperidin-1-yl)-propenone]
- hygroscopicity classification according to Ph. Eur. Criteria (section 5.11.) [2]: Slightly hygroscopic
- hygroscopicity classification according to Ph. Eur. Criteria (section 5.11.) ([2]; listed as form Fumarate-NF1): slightly hygroscopic
- water uptake levels ([2]; listed as form Fumarate-NF1): < 0.5 wt %

SMILES: C=CC(=O)N1CCC(CNc2ncnc(N)c2-c2ccc(Oc3ccccc3)cc2)CC1.O=C(O)CCC(=O)O [Succinate-NF1, 1-(4-{[6-Amino-5-(4-phenoxy-phenyl)-pyrimidin-4-ylamino]-methyl}-piperidin-1-yl)-propenone]
- Dissolution levels in FaSSIF pH 6.5 ([1]; 30 min): 92 μg/mL
- Dissolution levels in FaSSIF pH 6.5 ([1]; 60 min): 95 μg/mL
- Dissolution levels in FaSSIF pH 6.5 ([1]; 120 min (2 h)): 100 μg/mL
- Dissolution levels in FaSSIF pH 6.5 [1, 4]: approx. 100 μg/mL
- dissolution levels (2 h), factor higher vs form A1 ([1]; FaSSIF): ~3
- Dissolution levels in FeSSIF pH 5.0 ([1]; 30 min): 625 μg/mL
- Dissolution levels in FeSSIF pH 5.0 ([1]; 60 min): 708 μg/mL
- Dissolution levels in FeSSIF pH 5.0 ([1]; 120 min (2 h)): 743 μg/mL
- Dissolution levels in FeSSIF pH 5.0 [1, 4]: approx. 743 μg/mL
- dissolution levels (2 h), factor higher vs form A1 ([1]; FeSSIF): ~3.5
- hygroscopicity classification according to Ph. Eur. Criteria (section 5.11.) [2]: Slightly hygroscopic
- hygroscopicity classification according to Ph. Eur. Criteria (section 5.11.) ([2]; listed as form Succinate-NF1): slightly hygroscopic
- water uptake levels ([2]; listed as form Succinate-NF1): ≤ 2.0 wt %

SMILES: C=CC(=O)N1CCC(CNc2ncnc(N)c2-c2ccc(Oc3ccccc3)cc2)CC1.O=C(O)CCC(=O)O [Citrate-NF1, 1-(4-{[6-Amino-5-(4-phenoxy-phenyl)-pyrimidin-4-ylamino]-methyl}-piperidin-1-yl)-propenone]
- hygroscopicity classification according to Ph. Eur. Criteria (section 5.11.) [2]: Slightly hygroscopic
- hygroscopicity classification according to Ph. Eur. Criteria (section 5.11.) ([2]; listed as form Citrate-NF1): slightly hygroscopic
- water uptake levels ([2]; listed as form Citrate-NF1): < 2.0 wt %

SMILES: C=CC(=O)N1CCC(CNc2ncnc(N)c2-c2ccc(Oc3ccccc3)cc2)CC1.O=C(O)CCC(=O)O [Maleate-NF1, 1-(4-{[6-Amino-5-(4-phenoxy-phenyl)-pyrimidin-4-ylamino]-methyl}-piperidin-1-yl)-propenone]
- hygroscopicity classification according to Ph. Eur. Criteria (section 5.11.) [2]: Non-hygroscopic
- hygroscopicity classification according to Ph. Eur. Criteria (section 5.11.) ([2]; listed as form Maleate-NF1): non-hygroscopic
- water uptake levels ([2]; listed as form Maleate-NF1): < 0.5 wt %
